{"source": "paper PMC8280143", "about": "“A novel dephosphorylation targeting chimera selectively promoting tau removal in tauopathies” (Signal Transduction and Targeted Therapy, 2021)", "key": {"[1]": {"test_system": "dentate granular cells of Tau368 mice", "assay": "Sholl analysis of dendrite complexity", "assay_type": "in vivo, mouse", "method": "For 2-month male C57BL/6 mice, 10 mM FITC-labeled or unlabeled-DEPTAC were directly injected through the tail vein or lateral ventricle for the evaluation of BBB-penetrability. For 9-month 3×Tg AD mice or Tau368 (20–30 g body weight), unlabeled-DEPTAC (5 mM, 1 μL for each time) was delivered for once into the lateral ventricle through direct stereotaxic injection, or repeatedly administrated through guiding cannulas (RWD, Shenzhen, China) implanted into the lateral ventricle once every 3 days for a consecutive month to test its dephosphorylation efficiency. Mice were restricted in a custom designed device and stayed awake during drug administration, and sacrificed at 24 h post the single or last DEPTAC administration.\nA total volume of 0.3 μL mixture of AAV-CaMKIIα-Cre (5.21E+07) and AAV-EF1α-DIO-mCherry (3.24E+12) (1:1 vol/vol) was stereotaxically injected into the dDG of Tau368 mice 1 month following the beginning of dox or normal drinking water administration. Dox was stopped 1-month post AAVs injection, and DEPTAC were delivered through lateral ventricle for a consecutive month. Behavioral tests were performed after the DEPTAC administration, and mice were killed after behavioral tests. Hippocampal sections of 60 μm were obtained, and fluorescent images were taken by a two-photon laser-scanning confocal microscope (LSM710, Zeiss). The dendrite complexity of granular cells in the dorsal dentate gyrus was evaluated by Sholl analysis using Simple Neurite Tracer plugin and ImageJ (Fiji) software. Dendrite spine density and the averaged area of mossy fiber punctas were evaluated using ImageJ by an experimenter blinded from mice groupings. It should be noted that the fluorescence-labeled mossy fibers assembled densely in the CA3 subset, the main target area of mossy fiber axon terminals, making it difficult to accurately measure the puncta areas (data not shown). Therefore, we chose the hilus of DG subset for the measurement, which we believe should be also valid to indicate the axon plasticity of DG granular cells."}, "human tau (hTau)": {"test_system": "human tau (hTau)", "assay": "Immunofluorescence staining of phospho-tau in primary neurons with hTau overexpression", "assay_type": "cell-based", "conditions": "DEPTAC 200 μM for 24 h; *p < 0.05, **p < 0.01, n = 3 cell wells", "method": "Lentivirus LV-EF1α-hTau-GFP (3.50E+8 vg/mL) was packaged by OBiO (Shanghai, China) and used for hTau-overexpression (fused with GFP) in cultured primary rat neurons. AAV-CaMKIIα-Cre (diluted to 5.21E + 07 vg/mL) and AAV-EF1α-DIO-mCherry (3.24E + 12 vg/mL) were obtained from BrainVTA (Wuhan, China) and co-injected (1:1 vol/vol) for sparse labeling of dorsal DG neurons. Doxycycline was purchased from Energy Chemical (Shanghai, China). Rabbit polyclonal DEPTAC antibody was prepared by Daian Biotechnology (Wuhan, China). All other reagents including MG132 were purchased from Sigma-Aldrich (USA), unless otherwise specified.\nPrimary hippocampal neurons were prepared from E12–E15 days SD rat embryos. Briefly, pregnant rats were acutely executed, hippocampus was dissected on ice and gently minced in DME/F12 (Hyclone) then suspended in 0.125% (vol/vol) trypsin solution at 37 °C for 20 min. Enzymatic activity was stopped by fetal bovine serum. Neurons were initially kept in 10% FBS-containing DME/F12 for 4–6 h, and subsequently cultured in Neurobasal (Hyclone) with 2% B27, 1% glutamax and 1% penicillin–streptomycin (Thermo Fisher Scientific) in dishes pre-coated with 100 μg/mL poly-D-lysine. Serum was gradually removed by replacing half of the medium for each time within the following 2 days. […]"}}, "note": "“Also recorded” adds a separate entry of the source."}
{"substance": "(1) YQQYQDATADEQG, originates from the porcine β-tubulin 422–434 for recognizing and binding tau proteins.[5],[6] (2) GSGS, a linker for increasing the flexibility of the peptide.[15] (3) KKVAVVRTPPKSP, for recruiting PP2A-Bα,[16] and (4) RRRRRRRR [DEPTAC, DEPhosphorylation TArgeting Chimera; 38 amino acid residues, C185H314N72O56]", "values": [{"measurement": "dendrite complexity, NW-treated", "setting": "[1]; NW-treated Tau368 mice, n = 3~5 mice, 12~22 neurons", "value": "did not statistically change; also recorded: no statistically significant change"}, {"measurement": "neurite differentiation in control mice", "setting": "[1]; control mice without human tau accumulation", "value": "did not statistically change"}, {"measurement": "dendrite complexity, dox-treated", "setting": "[1]; dox-treated Tau368 mice, n = 3~5 mice, 12~22 neurons", "value": "did not statistically change; also recorded: no statistically significant change"}, {"measurement": "averaged immunoreactive (IR) intensity of phospho-tau", "setting": "human tau (hTau)", "value": "reduced"}]}
